Test results published in article PMC3303165 (Dalton Transactions (Cambridge, England : 2003), 2012).

What was measured:
[1] = system: Plasmodium falciparum Dd2 (chloroquine resistant strain); assay type: cell-based; conditions: DD2, read-out: Dd2: IC50
[2] = system: Plasmodium falciparum D10 (chloroquine sensitive strain); assay type: cell-based; conditions: D10, read-out: D10: IC50
heme aggregation = conditions: acetate buffer (pH=4.9)/n-octanol interface; cited from earlier work
[3] = cited from earlier work

Structure (SMILES)	IC50 [1]	IC50 [2]	HAIR50 (drug to hemin ratio required to inhibit 50% of heme aggregation) (heme aggregation)	D(pH=4.9) water/n-octanol distribution coefficient ([3]; pH 4.9)	D(pH=6.6) water/n-octanol distribution coefficient ([3]; pH 6.6)
Cn1ccnc1CNCCNc1ccnc2cc(Cl)ccc12 [L^2, N-(2-((1-methyl-1H-imidazol-2-yl)methylamino)ethyl)-7-chloroquinolin-4-amine]	250 ± 60 nM	190 ± 30 nM			
CCN(CC)CCCC(C)Nc1ccnc2cc(Cl)ccc12 (stereo not shown) [CQ, chloroquine]	143 ± 14 nM	25 ± 9 nM	2.92	0.15 ± 0.01	6.61 ± 0.64
Oc1ccccc1CN=CCNc1ccnc2cc(Cl)ccc12 [L^3, N-(2-((2-hydroxyphenyl)methylimino)ethyl)-7-chloroquinolin-4-amine]	> 30000 nM	550 ± 300 nM			
Clc1ccc2c(NCCNCc3ccccn3)ccnc2c1 [L^1, N-(2-((pyridin-2-yl)methylamino)ethyl)-7-chloroquinolin-4-amine]	220 ± 30 nM	30 ± 2 nM			
Clc1ccc2c(NCCN(Cc3ccccn3)Cc3ccccn3)ccnc2c1 [L^4, N-(2-(bis((pyridin-2-yl)methyl)amino)ethyl)-7-chloroquinolin-4-amine]	1300 ± 100 nM	1300 ± 100 nM			
